Active and inactive are the calls of the source. The rule behind the calls is not given here.
Test system: Schizosaccharomyces pombe
Assay: Suppression of Cl-sensitive growth defect in Schizosaccharomyces pombe harboring h+leu1 ura4-D18 ppb1::ura4+ mutant assessed as colony formation at 100 uM measured after 3 days in presence of MgCl2 by disc filter paper
Format: functional, organism-based
Settings: time 3.0 day

Structure (SMILES) | Activity
CCCCCCCCCC(=O)O[C@@H]1[C@H](OC[C@@H](O)[C@@H](O)[C@H](O)[C@H](O)CO)O[C@H](COC(=O)CCCCC)[C@@H](OC(=O)CCCCC)[C@@H]1OC(=O)CCCCC | Active
CCCCCCCC(=O)O[C@@H]1[C@H](OC[C@@H](O)[C@@H](O)[C@H](O)[C@H](O)CO)O[C@H](COC(=O)CCCCC)[C@@H](OC(=O)CCCCC)[C@@H]1OC(=O)CCCCC | Active
CCCCCCCC(=O)O[C@@H]1[C@H](OC[C@@H](O)[C@@H](O)[C@H](O)[C@H](O)CO)O[C@H](CO)[C@@H](O)[C@@H]1OC(=O)CCCCC | inactive
CCCCCCCCCCC(=O)O[C@@H]1[C@H](OC[C@@H](O)[C@@H](O)[C@H](O)[C@H](O)CO)O[C@H](COC(=O)CCCCC)[C@@H](OC(=O)CCCCC)[C@@H]1OC(=O)CCCCC | Active
CCCCCCCCCCCC(=O)O[C@@H]1[C@H](OC[C@@H](O)[C@@H](O)[C@H](O)[C@H](O)CO)O[C@H](COC(=O)CCCCC)[C@@H](OC(=O)CCCCC)[C@@H]1OC(=O)CCCCC | Active
CCCCCCCCC(=O)O[C@@H]1[C@H](OC[C@@H](O)[C@@H](O)[C@H](O)[C@H](O)CO)O[C@H](COC(=O)CCCCC)[C@@H](OC(=O)CCCCC)[C@@H]1OC(=O)CCCCC | Active
CCCCCCCC(=O)O[C@@H]1[C@H](OC[C@@H](O)[C@@H](O)[C@H](O)[C@H](O)CO)O[C@H](COC(=O)CCCCC)[C@@H](OC(=O)CCCCC)[C@@H]1O | inactive
CCCCCCC(=O)OC[C@H]1O[C@@H](OC[C@@H](O)[C@@H](O)[C@H](O)[C@H](O)CO)[C@@H](OC(=O)CCCCCC)[C@@H](OC(=O)CCCCCC)[C@@H]1OC(=O)CCCCCC | Active
CCCCC(=O)OC[C@H]1O[C@@H](OC[C@@H](O)[C@@H](O)[C@H](O)[C@H](O)CO)[C@@H](OC(=O)CCCC)[C@@H](OC(=O)CCCC)[C@@H]1OC(=O)CCCC | Active
CCCCCCCC(=O)OC[C@H]1O[C@@H](OC[C@@H](O)[C@@H](O)[C@H](O)[C@H](O)CO)[C@@H](OC(=O)CCCCCCC)[C@@H](OC(=O)CCCCCCC)[C@@H]1OC(=O)CCCCCCC | Active
CCCCCCCC(=O)O[C@@H]1[C@H](OC[C@@H](O)[C@@H](O)[C@H](O)[C@H](O)CO)O[C@H](COC(=O)CCCC)[C@@H](OC(=O)CCCC)[C@@H]1OC(=O)CCCC | Active
CCCCCCCC(=O)O[C@@H]1[C@H](OC[C@@H](O)[C@@H](O)[C@H](O)[C@H](O)CO)O[C@H](COC(=O)CCC)[C@@H](OC(=O)CCC)[C@@H]1OC(=O)CCC | Active
CCCCCC(=O)OC[C@H]1O[C@@H](OC[C@@H](O)[C@@H](O)[C@H](O)[C@H](O)CO)[C@@H](OC(=O)CC)[C@@H](OC(=O)CCCCC)[C@@H]1OC(=O)CCCCC | Active
CCCC(=O)OC[C@H]1O[C@@H](OC[C@@H](O)[C@@H](O)[C@H](O)[C@H](O)CO)[C@@H](OC(=O)CCC)[C@@H](OC(=O)CCC)[C@@H]1OC(=O)CCC | Active
CCCCCCCC(=O)O[C@@H]1[C@H](OC[C@@H](O)[C@@H](O)[C@H](O)[C@H](O)CO)O[C@H](COC(=O)CC)[C@@H](OC(=O)CC)[C@@H]1OC(=O)CC | Active
CCCCCC(=O)OC[C@H]1O[C@@H](OC[C@@H](O)[C@@H](O)[C@H](O)[C@H](O)CO)[C@@H](O)[C@@H](OC(=O)CCCCC)[C@@H]1OC(=O)CCCCC | inactive
CCCCCCC(=O)O[C@@H]1[C@H](OC[C@@H](O)[C@@H](O)[C@H](O)[C@H](O)CO)O[C@H](COC(=O)CCCCC)[C@@H](OC(=O)CCCCC)[C@@H]1OC(=O)CCCCC | Active
CCCCCC(=O)OC[C@H]1O[C@@H](OC[C@@H](O)[C@@H](O)[C@H](O)[C@H](O)CO)[C@@H](OC(=O)CCC)[C@@H](OC(=O)CCCCC)[C@@H]1OC(=O)CCCCC | Active
CCCCCCCCCCCCCC(=O)O[C@@H]1[C@H](OC[C@@H](O)[C@@H](O)[C@H](O)[C@H](O)CO)O[C@H](COC(=O)CCCCC)[C@@H](OC(=O)CCCCC)[C@@H]1OC(=O)CCCCC | Active
CCCCCCCCCCCCCCCC(=O)O[C@@H]1[C@H](OC[C@@H](O)[C@@H](O)[C@H](O)[C@H](O)CO)O[C@H](COC(=O)CCCCC)[C@@H](OC(=O)CCCCC)[C@@H]1OC(=O)CCCCC | Active
CCCCCCCC(=O)O[C@@H]1[C@H](OC[C@@H](O)[C@@H](O)[C@H](O)[C@H](O)CO)O[C@H](COC(=O)CCCCCC)[C@@H](OC(=O)CCCCCC)[C@@H]1OC(=O)CCCCCC | Active
CCCCCC(=O)OC[C@H]1O[C@@H](OC[C@@H](O)[C@@H](O)[C@H](O)[C@H](O)CO)[C@@H](OC(=O)CCCC)[C@@H](OC(=O)CCCCC)[C@@H]1OC(=O)CCCCC | Active
CCCCCC(=O)OC[C@H]1O[C@@H](OC[C@@H](O)[C@@H](O)[C@H](O)[C@H](O)CO)[C@@H](OC(=O)CCCCC)[C@@H](OC(=O)CCCCC)[C@@H]1OC(=O)CCCCC | Active
CCC(=O)OC[C@H]1O[C@@H](OC[C@@H](O)[C@@H](O)[C@H](O)[C@H](O)CO)[C@@H](OC(=O)CC)[C@@H](OC(=O)CC)[C@@H]1OC(=O)CC | Active
